# Results as given in paper PMC8880714, “Antimicrobial effect and mechanism of bovine lactoferrin against the potato common scab pathogen Streptomyces scabiei” (PLoS ONE, 2022).
# Where two headings read alike, the source gives them in different places. Where no end group is shown, it is not given here.
# Legend:
# [1] = pH of the medium in which the substance was dissolved; format: physicochemical
# Description: On the contrary, in the assay of Trp alone at high concentrations, because Trp cannot bind to the cell surface by itself, only a few numbers could reach the membrane (Fig 8C). In summary, Trp must reach the cell membrane to exert its antimicrobial activity. We speculated that the change in the chemical structures and properties of Arg and Trp may affect their antimicrobial activity, that is, the ability to bind to the bacterial cell surface. Therefore, we used Arg and Trp derivatives, namely arginine hydrochloride, tryptophan methyl ester hydrochloride, and tryptophan ethyl ester hydrochloride, which are easily available. Intriguingly, arginine hydrochloride completely lost the antimicrobial activity against S. scabiei shown by Arg (Fig 7A and 7C). Sephai et al. (2017) reported that the antimicrobial activity of poly-arginine is influenced by pH; at mild acidic pH (5 and 6), its MIC values decreased. We measured the pH of the medium in which arginine or arginine hydrochloride was dissolved and found it to be 9.5 and 5.5, respectively. Streptomyces spp. can grow at pH values ranging from 4.0 to 11.5 [63]. Teichoic and lipoteichoic acids in gram-positive bacterial cell walls are esterified to D-Ala residues and at neutral or lower pH, the amino group of D-Ala (pKa 8.42) is protonated, conferring a neutral or positive charge to the cell walls. […]
# Streptomyces scabiei S58 = experiment: microbe, parasite or virus in culture; format: cell-based
# Method: S. scabiei S58, isolated from potatoes grown in Kagoshima, Japan, was used in this study. […] For antimicrobial assays, the spores of the isolate were incubated at 28 °C in tryptic soy broth (TSB) (Becton Dickinson, Sparks, USA). Escherichia coli strains JM109 and BL21(λDE3) were grown at 37 °C in Luria-Bertani broth supplemented with 100 μg/mL ampicillin for propagation.
# A 12-well plate was used to assess the antimicrobial activity of LF, hydrolysate, LFcinB, and synthetic peptides. One milliliter of TSB containing each test substance was added to each well and then the spores of S. scabiei S58, prepared as described above, were added into each well at a final concentration of 2 × 10^5 spores/mL. The mixture was incubated at 28 °C for 72 h, and the absorbance was measured at 600 nm to monitor bacterial growth. To further confirm whether the antimicrobial activity is due to growth inhibition or bactericidal effect, 1 mL of TSB containing 2 ×10^3 spores and bLF (1 mg/mL) was incubated at 28 °C and directly cultured on STA after 5, 10, 15, 24, 48, and 72 h of incubation to count the emerging colonies. All assays were performed in duplicate and were repeated three times.
# [2] = spores 2 × 10^5/mL, TSB, 28 °C, 72 h, absorbance 600 nm
# [3] = S. scabiei S58 spores 2 × 10^5/mL, TSB, 28 °C, 72 h, absorbance 600 nm, probit analysis, mean ± SD, n = 3, N/A = no antimicrobial activity, read-out: Antimicrobial activity (IC50)
molecule,measurement,setting,value
Cl.N=C(N)NCCC[C@H](N)C(=O)O [Arginine hydrochloride],pH of the medium in which the substance was dissolved,[1],5.5
same,"Antimicrobial activity, in words",Streptomyces scabiei S58; [2],complete loss of activity
N=C(N)NCCC[C@H](N)C(=O)O [Arginine],pH of the medium in which the substance was dissolved,[1],9.5
same,IC50,"Streptomyces scabiei S58; Streptomyces scabiei, S58, 72 h, read-out: Antimicrobial activity (IC50)",14300 ± 1400 µM
same,Concentration necessary to completely inhibit the growth of S. scabiei,Streptomyces scabiei S58; [2],40 mM
CC[C@H](C)[C@@H]1NC(=O)[C@H](CO)NC(=O)[C@@H]2CCCN2C(=O)[C@H](C)NC(=O)CNC(=O)[C@H](CC(C)C)NC(=O)[C@H](CCCCN)NC(=O)[C@H](CCCCN)NC(=O)[C@H](CCSC)NC(=O)[C@H](CCCNC(=N)N)NC(=O)[C@H](Cc2c[nH]c3ccccc23)NC(=O)[C@H](CCC(N)=O)NC(=O)[C@H](Cc2c[nH]c3ccccc23)NC(=O)[C@H](CCCNC(=N)N)NC(=O)[C@H](CCCNC(=N)N)NC(=O)[C@@H](NC(=O)[C@H](CCCCN)NC(=O)[C@@H](N)Cc2ccccc2)CSSC[C@@H](C(=O)N[C@H](C(=O)N[C@@H](CCCNC(=N)N)C(=O)N[C@@H](CCCNC(=N)N)C(=O)N[C@@H](C)C(=O)N[C@@H](Cc2ccccc2)C(=O)O)C(C)C)NC(=O)[C@H]([C@@H](C)O)NC1=O [Bovine lactoferricin (LFcinB)],Concentration at which no growth of S. scabiei was observed,Streptomyces scabiei S58; [2],3.2 µM
CCOC(=O)[C@@H](N)Cc1c[nH]c2ccccc12.Cl [Tryptophan ethyl ester hydrochloride],IC50,Streptomyces scabiei S58; [3],1303 ± 4 µM
same,"Antimicrobial activity, in words",Streptomyces scabiei S58; [2],much higher activity than that of tryptophan
COC(=O)[C@@H](N)Cc1c[nH]c2ccccc12.Cl [Tryptophan methyl ester hydrochloride],IC50,Streptomyces scabiei S58; [3],2860 ± 326 µM
same,"Antimicrobial activity, in words",Streptomyces scabiei S58; [2],much higher activity than that of tryptophan
N[C@@H](Cc1c[nH]c2ccccc12)C(=O)O [Tryptophan],inhibition at 40000 µM,"Streptomyces scabiei S58; Streptomyces scabiei, S58, read-out: Inhibition of growth of S. scabiei",40%
QQWWWQ [Synthetic peptide containing three Trp residues and no Arg residue],"Antimicrobial activity, in words",Streptomyces scabiei S58; [2],complete loss of activity
RRRQRR [Synthetic peptide containing no Trp residue],"Antimicrobial activity, in words",Streptomyces scabiei S58; [2],completely lost its activity
RRWQWR [RRWQWR],IC50,Streptomyces scabiei S58; 72 h,48 ± 9 µM
RRWWWR [RRWWWR],IC50,Streptomyces scabiei S58; 72 h,27 ± 2 µM
